Where a name gives a salt, the structure may show the parent alone.

For experiment [1], the system named is anaesthetized rabbits subjected to vagal stimulation. Kind of experiment: In vivo PD model, anaesthetized rabbits with vagal stimulation: right atrial effective refractory period (RAERP), QT. More on the design: species or system rabbit. The protocol:
Rabbits were anaesthetized using ketalar and domitor (2.5 and 0.07 mg/kg, respectively) as an i.v. bolus followed by a maintenance i.v. infusion (11 and 0.33 mg/kg/h, respectively) and ventilated with room air. Two percutaneous polyethylene catheter (Venflon 0.8 mm, Viggo, Helsingborg, Sweden) for administration of anaesthetics and drug infusions, respectively, were inserted into marginal veins on the right and left ear. A polyethylene catheter (Intramedic PE 160 Clay Adams, Becton Dickinson, Sparks, Md., USA) was inserted into the left carotid artery and advanced to the level of the aortic arch for blood pressure recording (by means of a pressure transducer, Peter von Berg Medizintechnik Gmbh, Kirchseeon/Englharting, Germany) and for blood sampling. For recording of right atrial electrogram and for atrial pacing, a 4F quadripolar electrophysiological recording catheters (Electrophysiology catheter-Deflectable tip, Biosense Webster Inc, Johnson & Johnson, Diamond Bar, Calif., USA) was advanced into the right jugular vein and positioned high up in the right atrium (HRA). Electrodes were advanced via introducers (4F Fast-Cath haemostasis introducer, ST. Jude Medical, DAIG Division, Inc. Minnetonka, Minn., USA) correctly positioned through fluoroscopic guidance. The effective refractory period in the right atrium (RAERP) was determined at a stimulation current strength approximately 20% above the threshold for pacing the atria. A custom-made PC-based (AstraZeneca R&D, Mölndal, Sweden) programmable stimulator and constant current pulse generator (WPI Stimulus Isolator, World Precision Instruments, Sarasota, Fla., USA) were used for stimulation at one or two predefined basic cycle lengths (S1) of for example 200 and 300 ms. A premature extra stimulus (S2) was introduced after every 10th paced basic beat with increments of 2 ms until capture. […] For vagal stimulation, both vagal nerves were ligated and cut in the cervical region and propranolol (0.5 mg/kg) was administrated as an i.v. infusion to decrease sympathetic influence. Electrodes were inserted in the middle of the right vagal nerve to stimulate the efferent vagi. The RAERP was determined without or with vagal stimulation at 50% of maximal vagal response. Subsequent infusion of compound aimed to increase the RAERP with 20 ms during the first dose of two consecutive doses. The drug infusion was followed by a washout period of approximately 30-60 min. QT prolongation was recorded from surface electrocardiography (ECG). The effect on RAERP was measured several times during infusion and washout and blood samples were taken at each measurements. Effect and plasma concentration data was analysed accounting for a concentration-effect-time delay and the unbound plasma concentration (Ceu) increasing the RAERP by 20 ms was calculated.

Experiment [2] deals with T1, human ether-a-go-go-related gene (hERG)-encoded K+ channel (Homo sapiens, UniProt Q12809).
T1 construct: expressed in transfected cells; host or cells: Chinese hamster ovary K1 (CHO) cells
Description: hERG inhibition, IonWorks HT, hERG-expressing CHO cells. In kind it is cell-based. The protocol: Inhibition of the human ether-a-go-go-related gene (hERG)-encoded K^+ channel was determined using hERG-expressing Chinese hamster ovary K1 (CHO) cells on a IonWorks™ HT assay platform as described by M. H. Bridgland-Taylor et al. J. of Pharmacological and Toxicological Methods (2006); 54:189-199.

T1 sequence (Q12809 whole entry): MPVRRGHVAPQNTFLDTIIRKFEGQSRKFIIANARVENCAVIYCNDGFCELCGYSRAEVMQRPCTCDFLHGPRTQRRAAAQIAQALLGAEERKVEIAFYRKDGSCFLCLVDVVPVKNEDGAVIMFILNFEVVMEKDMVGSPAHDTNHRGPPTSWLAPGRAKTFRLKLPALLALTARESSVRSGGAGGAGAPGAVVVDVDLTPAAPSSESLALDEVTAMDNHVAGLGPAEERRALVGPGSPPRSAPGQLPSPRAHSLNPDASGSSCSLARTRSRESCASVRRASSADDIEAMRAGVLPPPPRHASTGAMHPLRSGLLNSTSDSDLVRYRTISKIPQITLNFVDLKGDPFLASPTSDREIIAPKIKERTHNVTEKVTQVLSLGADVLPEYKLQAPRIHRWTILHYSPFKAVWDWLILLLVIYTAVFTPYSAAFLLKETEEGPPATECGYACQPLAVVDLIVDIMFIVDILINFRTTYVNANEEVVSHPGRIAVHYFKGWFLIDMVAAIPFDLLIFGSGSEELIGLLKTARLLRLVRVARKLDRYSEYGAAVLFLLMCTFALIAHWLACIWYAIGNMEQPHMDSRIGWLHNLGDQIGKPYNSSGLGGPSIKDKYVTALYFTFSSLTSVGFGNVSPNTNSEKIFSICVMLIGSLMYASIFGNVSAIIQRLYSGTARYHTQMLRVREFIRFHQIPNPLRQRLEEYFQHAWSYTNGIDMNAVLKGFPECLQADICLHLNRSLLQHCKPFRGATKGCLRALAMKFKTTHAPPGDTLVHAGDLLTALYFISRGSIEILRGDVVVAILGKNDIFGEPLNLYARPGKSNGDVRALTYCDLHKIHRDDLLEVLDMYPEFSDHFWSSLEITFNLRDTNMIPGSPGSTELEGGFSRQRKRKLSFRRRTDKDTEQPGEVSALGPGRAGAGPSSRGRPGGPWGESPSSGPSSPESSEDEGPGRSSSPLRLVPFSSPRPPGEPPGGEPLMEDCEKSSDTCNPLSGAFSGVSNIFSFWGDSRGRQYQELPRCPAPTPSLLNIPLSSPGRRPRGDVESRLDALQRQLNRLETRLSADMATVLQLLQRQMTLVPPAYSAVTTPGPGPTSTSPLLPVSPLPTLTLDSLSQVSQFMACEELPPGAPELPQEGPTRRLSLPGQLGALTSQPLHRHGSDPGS

`CC(C)[C@@H](CN1CCCC1)N(C)C(=O)c1ccc(Br)cc1` [Example 19, (S)-1-(2-(4-bromo-N-methylbenzamido)-3-methylbutyl)pyrrolidinium 3-carboxy-2,3-dihydroxypropanoate]: in experiment [1], the “Ceu 20 ms” value was 0.34 µM. The compound further returned an IC50 in experiment [2] of 17 µM.

As to `CC[C@@H](CN1CC(O)C1)N(C)C(=O)c1ccc(Cl)cc1` [Example 39.12, (S)-4-Chloro-N-(1-(3-hydroxyazetidin-1-yl)butan-2-yl)-N-methylbenzamide], the “Ceu 20 ms” value in experiment [1] is 2.06 µM. The compound further yielded an IC50 in experiment [2] of more than 33 µM.

Regarding `CCCC[C@@H](CN1CC(O)C1)N(C)C(=O)c1ccc(C#N)cc1` [Example 33.4, 4-Cyano-N-[(2S)-1-(3-hydroxyazetidin-1-yl)hexan-2-yl]-N-methylbenzamide], in experiment [1], the “Ceu 20 ms” value worked out at 0.52 µM. Further, half-maximal inhibition in experiment [2] (IC50) required 18 µM.

As for `CC(C)C[C@@H](CN1CC(O)C1)N(C)C(=O)c1ccc(Cl)cc1` [Example 38.2, 4-Chloro-N-[(2S)-1-(3-hydroxyazetidin-1-yl)-4-methylpentan-2-yl]-N-methylbenzamide], the “Ceu 20 ms” value in experiment [1] was found to be 0.38 µM. Further, the IC50 in experiment [2] was more than 33 µM.

For `CC(C)[C@@H](CN1CCCC1)N(C)C(=O)c1ccc(Cl)cc1` [Example 18, (S)-1-(2-(4-Chloro-N-methylbenzamido)-3-methylbutyl)pyrrolidinium chloride], the “Ceu 20 ms” value in experiment [1] is 0.70 µM. In experiment [2], this compound showed an IC50 of more than 30 µM.

For the compound `CC(C)C[C@@H](CN1CC(O)C1)N(C)C(=O)c1ccc(F)c(F)c1` [Example 38.1, 3,4-Difluoro-N-[(2S)-1-(3-hydroxyazetidin-1-yl)-4-methylpentan-2-yl]-N-methylbenzamide], in experiment [1], the “Ceu 20 ms” value was 0.34 µM. The IC50 in experiment [2] was more than 33 µM.

For `CC(C)[C@@H](CN1CCC1)N(C)C(=O)c1ccc(Cl)cc1` [Example 5.1, (S)-N-(1-(Azetidin-1-yl)-3-methylbutan-2-yl)-4-chloro-N-methylbenzamide], the “Ceu 20 ms” value in experiment [1] stood at 1.00 µM. In experiment [2], this compound returned an IC50 of 76 µM.

`CC(C)[C@@H](CN1CCCC1)N(C)C(=O)c1ccc(F)c(Cl)c1` [Example 16.55, (S)-3-Chloro-4-fluoro-N-methyl-N-(3-methyl-1-(pyrrolidin-1-yl)butan-2-yl)benzamide]: the “Ceu 20 ms” value in experiment [1] is 0.60 µM. Also, the IC50 in experiment [2] is more than 31 µM.

Regarding `CN(C(=O)c1ccc(Br)cc1)[C@H](CN1CC(O)C1)C1CC1` [Example 4.4, (S)-4-Bromo-N-(1-cyclopropyl-2-(3-hydroxyazetidin-1-yl)ethyl)-N-methylbenzamide], the “Ceu 20 ms” value in experiment [1] amounted to 0.75 µM. In experiment [2], this compound yielded an IC50 of more than 33 µM.

For `Cc1cc(C(=O)N(C)[C@H](CN2CC(O)C2)C2CC2)ccc1F` [Example 7.1, (S)—N-(1-Cyclopropyl-2-(3-hydroxyazetidin-1-yl)ethyl)-4-fluoro-N,3-dimethylbenzamide], in experiment [1], the “Ceu 20 ms” value came to 5.40 µM. In experiment [2], the IC50 is more than 33 µM.

Regarding `CN(C(=O)c1ccc(Cl)cc1)[C@H](CN1CC(O)C1)C1CCC1` [Example 39.14, (S)-4-Chloro-N-(1-cyclobutyl-2-(3-hydroxyazetidin-1-yl)ethyl)-N-methylbenzamide], the “Ceu 20 ms” value in experiment [1] was found to be 0.10 µM. In experiment [2], the IC50 was more than 33 µM.

Turning to `CCC[C@@H](CN1CC(O)C1)N(C)C(=O)c1ccc(F)cc1` [Example 8.6, (S)-4-Fluoro-N-(1-(3-hydroxyazetidin-1-yl)pentan-2-yl)-N-methylbenzamide], the “Ceu 20 ms” value in experiment [1] is 2.50 µM. For the same compound, in experiment [2], the IC50 was more than 33 µM.

As to `CCC[C@@H](CN1CC(O)C1)N(C)C(=O)c1ccc(Cl)cc1` [Example 8.2, (S)-4-Chloro-N-(1-(3-hydroxyazetidin-1-yl)pentan-2-yl)-N-methyl-benzamide, hydrochloride], the “Ceu 20 ms” value in experiment [1] came out at 0.34 µM. Moreover, the IC50 in experiment [2] is more than 57 µM.

For the compound `CC[C@H](C)[C@@H](CN1CC(O)C1)N(C)C(=O)c1ccc(C#N)cc1F` [Example 29.7, 4-Cyano-2-fluoro-N-((2S,3S)-1-(3-hydroxyazetidin-1-yl)-3-methylpentan-2-yl)-N-methylbenzamide], the “Ceu 20 ms” value in experiment [1] came to 0.79 µM. This compound came in with an IC50 in experiment [2] of more than 33 µM.

In the case of `CN(C(=O)c1ccc(C#N)cc1)[C@H](CN1CC(O)C1)C1CCC1` [Example 39.2, (S)-4-Cyano-N-(1-cyclobutyl-2-(3-hydroxyazetidin-1-yl)ethyl)-N-methylbenzamide], the “Ceu 20 ms” value in experiment [1] was 0.28 µM. Further, half-maximal inhibition in experiment [2] (IC50) required 80 µM.

Consider `CN(C(=O)c1ccc(F)c(Cl)c1)[C@H](CN1CC(O)C1)C1CC1` [Example 7.3, (S)-3-Chloro-N-(1-cyclopropyl-2-(3-hydroxyazetidin-1-yl)ethyl)-4-fluoro-N-methylbenzamide], for which the “Ceu 20 ms” value in experiment [1] was determined as 2.10 µM. For the same compound, the IC50 in experiment [2] was more than 33 µM.

In the case of `CCC[C@@H](CN1CCC1)N(C)C(=O)c1ccc(Cl)cc1` [Example 1.2, (S)-N-(1-(Azetidin-1-yl)pentan-2-yl)-4-chloro-N-methylbenzamide], the “Ceu 20 ms” value in experiment [1] was determined as 0.40 µM. This compound also showed an IC50 in experiment [2] of 20 µM.

For `CC(C)[C@@H](CN1CC[C@H](O)C1)N(C)C(=O)c1ccc(Cl)cc1` [Example 10.2, 4-Chloro-N-((S)-1-((S)-3-hydroxypyrrolidin-1-yl)-3-methylbutan-2-yl)-N-methylbenzamide hemi tartrate], the “Ceu 20 ms” value in experiment [1] was found to be 1.40 µM. In addition, the IC50 in experiment [2] is more than 33 µM.

In the case of `CC(C)[C@@H](CN1CC(O)C1)N(C)C(=O)c1ccc(Cl)cc1` [Example 6.2, (S)-4-Chloro-N-(1-(3-hydroxyazetidin-1-yl)-3-methylbutan-2-yl)-N-methylbenzamide], the “Ceu 20 ms” value in experiment [1] came to 0.40 µM. This compound also gave an IC50 in experiment [2] of more than 53 µM.

For `CCCC[C@@H](CN1CC(O)C1)N(C)C(=O)c1ccc(F)cc1` [Example 33.7, 4-Fluoro-N-[(2S)-1-(3-hydroxyazetidin-1-yl)hexan-2-yl]-N-methylbenzamide], the “Ceu 20 ms” value in experiment [1] amounted to 0.80 µM. The compound also showed an IC50 in experiment [2] of 79 µM.

For `CC(C)C[C@@H](CN1CC(O)C1)N(C)C(=O)c1ccc(C#N)cc1F` [Example 38.6, 4-Cyano-2-fluoro-N-[(2S)-1-(3-hydroxyazetidin-1-yl)-4-methylpentan-2-yl]-N-methylbenzamide], the “Ceu 20 ms” value in experiment [1] was 0.72 µM. For the same compound, in experiment [2], the IC50 was more than 33 µM.

As to `Cc1cc(C(=O)N(C)[C@H](CN2CCC2)C2CC2)ccc1F` [Example 4.1, (S)—N-(2-(Azetidin-1-yl)-1-cyclopropylethyl)-4-fluoro-N,3-dimethylbenzamide], the “Ceu 20 ms” value in experiment [1] came out at 0.74 µM. For the same compound, the IC50 in experiment [2] is more than 33 µM.

Consider `Cc1cc(C(=O)N(C)[C@H](CN2CC(O)C2)C2CCC2)ccc1F` [Example 39.16, (S)—N-(1-Cyclobutyl-2-(3-hydroxyazetidin-1-yl)ethyl)-4-fluoro-N,3-dimethylbenzamide], for which the “Ceu 20 ms” value in experiment [1] was 0.24 µM. This compound returned an IC50 in experiment [2] of more than 33 µM.

For `CC(C)[C@@H](CN1CCC1)N(C)C(=O)c1ccc(Br)cc1.O=C(O)CCC(=O)O` [Example 5.2], the “Ceu 20 ms” value in experiment [1] is 0.60 µM. The compound further had an IC50 in experiment [2] of 34 µM.

For `CCC[C@@H](CN1CC(O)C1)N(C)C(=O)c1ccc(F)c(F)c1` [Example 8.1, (S)-3,4-Difluoro-N-(1-(3-hydroxyazetidin-1-yl)pentan-2-yl)-N-methylbenzamide], the “Ceu 20 ms” value in experiment [1] stood at 0.87 µM. In addition, the IC50 in experiment [2] is more than 100 µM.

In the case of `Cc1cc(C(=O)N(C)[C@H](CN2CC(O)C2)C(C)C)ccc1F` [Example 6.1, (S)-4-Fluoro-N-(1-(3-hydroxyazetidin-1-yl)-3-methylbutan-2-yl)-N,3-dimethylbenzamide], the “Ceu 20 ms” value in experiment [1] is 0.54 µM. This compound had an IC50 in experiment [2] of more than 100 µM.

As for `Cc1cccc(C(=O)N(C)[C@H](CN2CCCC2)C(C)C)c1` [Example 12.2, (S)-1-(2-(N,3-Dimethylbenzamido)-3-methylbutyl)pyrrolidinium 2,3-dihydroxysuccinate], in experiment [1], the “Ceu 20 ms” value amounted to 2.20 µM. Moreover, the IC50 in experiment [2] is more than 33 µM.

With `CN(C(=O)c1ccc(Cl)cc1)[C@H](CN1CC(O)C1)C1CC1` [Example 7.2, (S)-4-Chloro-N-(1-cyclopropyl-2-(3-hydroxyazetidin-1-yl)ethyl)-N-methylbenzamide], in experiment [1], the “Ceu 20 ms” value came out at 1.00 µM. Besides, the IC50 in experiment [2] is more than 33 µM.

The term IC50 denotes the concentration that gives 50% inhibition. Lower therefore signals greater potency.

Values taken from patent US8361998B2, “Compounds and their use as IKACh blockers” (AstraZeneca AB, priority 2010, dated 2013).
